The target in assay [1] is T1, Mps-1 kinase (Homo sapiens, UniProt P33981).
T1 sequence (P33981 1-857): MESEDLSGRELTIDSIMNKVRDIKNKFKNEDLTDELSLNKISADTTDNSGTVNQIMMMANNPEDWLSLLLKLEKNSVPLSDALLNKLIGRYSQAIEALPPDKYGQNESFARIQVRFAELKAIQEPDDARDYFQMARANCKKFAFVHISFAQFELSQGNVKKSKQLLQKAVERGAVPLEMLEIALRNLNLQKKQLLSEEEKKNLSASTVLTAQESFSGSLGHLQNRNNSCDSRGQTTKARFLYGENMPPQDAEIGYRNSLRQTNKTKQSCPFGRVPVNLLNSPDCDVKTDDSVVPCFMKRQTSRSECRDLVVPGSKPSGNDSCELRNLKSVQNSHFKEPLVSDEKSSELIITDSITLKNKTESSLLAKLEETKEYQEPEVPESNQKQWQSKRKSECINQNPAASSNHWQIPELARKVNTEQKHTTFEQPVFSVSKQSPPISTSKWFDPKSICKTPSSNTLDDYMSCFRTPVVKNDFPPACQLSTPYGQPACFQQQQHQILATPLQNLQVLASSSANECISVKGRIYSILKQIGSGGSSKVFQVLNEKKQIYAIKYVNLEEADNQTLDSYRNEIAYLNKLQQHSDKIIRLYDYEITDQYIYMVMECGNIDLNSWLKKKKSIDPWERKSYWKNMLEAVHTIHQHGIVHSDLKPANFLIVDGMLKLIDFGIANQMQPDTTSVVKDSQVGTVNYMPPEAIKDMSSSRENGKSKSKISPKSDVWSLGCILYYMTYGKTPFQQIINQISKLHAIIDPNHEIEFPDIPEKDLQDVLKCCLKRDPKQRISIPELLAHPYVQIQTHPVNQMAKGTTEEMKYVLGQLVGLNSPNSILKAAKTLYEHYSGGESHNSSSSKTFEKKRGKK
Put plainly: Mps-1 kinase assay with 2 mM ATP (TR-FRET). Background: Time-resolved FRET reads energy transfer from a long-lived donor to a nearby acceptor.

Assay [2] concerns the target T1, Mps-1 kinase. Put plainly: Mps-1 kinase assay with 10 μM ATP (TR-FRET).

SMILES strings stand for the structures. pIC50: −log10 of the molar value.

As for `COc1cc(S(C)(=O)=O)ccc1Nc1nc2ccc(-c3ccc(NC(=O)Cc4ccc(F)c(C)c4)cc3)cn2n1` [Example 12.40, 2-(4-fluoro-3-methylphenyl)-N-[4-(2-{[2-methoxy-4-(methylsulfonyl)phenyl]-amino}[1,2,4]triazolo[1,5-a]pyridin-6-yl)phenyl]-acetamide], the pIC50 against Mps-1 kinase [1] was 8.00; on Mps-1 kinase [2] it was no less than 9.00.

As for `COc1cc(S(C)(=O)=O)ccc1Nc1nc2ccc(-c3ccc(C(=O)NCc4ccc(Cl)cc4)cc3)cn2n1` [Example 12.73, N-(4-chlorobenzyl)-4-(2-{[2-methoxy-4-(methylsulfonyl)-phenyl]amino}[1,2,4]triazolo [1,5-a]pyridin-6-yl)-benzamide], the pIC50 is 7.80 against Mps-1 kinase [1] and no less than 9.00 at Mps-1 kinase [2].

`CS(=O)(=O)c1ccc(Nc2nc3ccc(-c4ccc(C(=O)NCc5ccc(F)cc5)cc4)cn3n2)c(OCC(F)(F)F)c1` [Example 02.27, N-(4-fluorobenzyl)-4-(2-{[4-(methylsulfonyl)-2-(2,2,2-trifluoroethoxy)-phenyl]amino}[1,2,4]triazolo[1,5-α]pyridin-6-yl)benzamide]: the pIC50 at Mps-1 kinase [1] and on Mps-1 kinase [2] was no less than 9.00 each time.

Consider `Cc1cc(S(C)(=O)=O)ccc1Nc1nc2ccc(-c3ccc(C(=O)NCc4ccc(F)cc4)cc3)cn2n1` [Example 12.68, N-(4-fluorobenzyl)-4-(2-{[2-methyl-4-(methylsulfonyl)-phenyl]amino}[1,2,4]triazolo [1,5-a]pyridin-6-yl)-benzamide], for which the pIC50 against Mps-1 kinase [1] is 8.72; on Mps-1 kinase [2], no less than 9.00.

Regarding `Cc1cc(C(N)=O)ccc1Nc1nc2ccc(-c3ccc(NC(=O)Cc4ccc(F)cc4)cc3)cn2n1` [Example 12.28, 4-{[6-(4-{[(4-fluorophenyl)-acetyl]amino}phenyl)[1,2,4]triazolo[1,5-a]pyridin-2-yl]amino}-3-methyl-benzamide], the pIC50 against Mps-1 kinase [1] and against Mps-1 kinase [2] was no less than 9.00 in each case.

Take `CCOc1cc(C(=O)NCCN(C)C)ccc1Nc1nc2ccc(-c3ccc(NC(=O)Cc4ccc(F)cc4)cc3)cn2n1` [Example 12.20, N-[2-(dimethylamino)ethyl]-3-ethoxy-4-{[6-(4-{[(4-fluorophenyl)acetyl]amino}-phenyl)[1,2,4]triazolo[1,5-a]pyridin-2-yl]amino}-benzamide]: the pIC50 against Mps-1 kinase [1] and against Mps-1 kinase [2] was no less than 9.00 throughout.

Turning to `COc1ccc(Nc2nc3ccc(-c4ccc(NC(=O)Cc5ccc(F)cc5)cc4)cn3n2)c(C)c1` [Example 12.35, 2-(4-fluorophenyl)-N-(4-{2-[(4-methoxy-2-methyl-phenyl)amino][1,2,4]-triazolo[1,5-a]pyridin-6-yl}-phenyl)acetamide], the pIC50 against Mps-1 kinase [1] was 8.68; at Mps-1 kinase [2] it was no less than 9.00.

As to `COc1cc(S(C)(=N)=O)ccc1Nc1nc2ccc(-c3ccc(C(=O)NCc4ccc(F)cc4)cc3)cn2n1` (stereo not drawn) [Example 12.83, N-(4-fluorobenzyl)-4-(2-{[2-methoxy-4-(S-methylsulfonimidoyl)phenyl]-amino}[1,2,4]triazolo[1,5-α]pyridin-6-yl)benzamide], the pIC50 is 8.74 on Mps-1 kinase [1] and no less than 9.00 on Mps-1 kinase [2].

Regarding `CC(C)S(=O)(=O)c1ccc(Nc2nc3ccc(-c4ccc(C(=O)NCc5ccc(F)cc5)cc4)cn3n2)c(OC(F)F)c1` [Example 12.62, 4-(2-{[2-(difluoromethoxy)-4-(propan-2-ylsulfonyl)-phenyl]amino}[1,2,4]-triazolo[1,5-a]pyridin-6-yl)-N-(4-fluorobenzyl)-benzamide], the values for the pIC50 at Mps-1 kinase [1] and at Mps-1 kinase [2] were 8.46 and no less than 9.00, respectively.

Regarding `CCOc1cc(S(=O)(=O)CC)ccc1Nc1nc2ccc(-c3ccc(NC(=O)Cc4ccc(F)cc4)cc3)cn2n1` [Example 01.33, N-[4-(2-{[2-ethoxy-4-(ethylsulfonyl)phenyl]amino}[1,2,4]triazolo[1,5-α]-pyridin-6-yl)phenyl]-2-(4-fluorophenyl)acetamide], the pIC50 was 8.89 at Mps-1 kinase [1] and no less than 9.00 at Mps-1 kinase [2].

Regarding `Cc1cc(C(=O)NCC(F)(F)F)ccc1Nc1nc2ccc(-c3ccc(C(=O)NCc4ccc(F)cc4)cc3)cn2n1` [Example 12.66, 4-[(6-{4-[(4-fluorobenzyl)-carbamoyl]phenyl}[1,2,4]triazolo [1,5-a]pyridin-2-yl)-amino]-3-methyl-N-(2,2,2-trifluoroethyl)benzamide], the pIC50 on Mps-1 kinase [1] was 8.70; against Mps-1 kinase [2], no less than 9.00.

On to `COc1cc(S(C)(=N)=O)ccc1Nc1nc2ccc(-c3ccc(NC(=O)Cc4ccc(F)cc4)cc3)cn2n1` (stereo not drawn) [Example 12.82, 2-(4-fluorophenyl)-N-[4-(2-{[2-methoxy-4-(S-methylsulfonimidoyl)phenyl]-amino}[1,2,4]triazolo[1,5-α]pyridin-6-yl)phenyl]acetamide], for which the pIC50 on Mps-1 kinase [1] and at Mps-1 kinase [2] was no less than 9.00 throughout.

On to `CCOc1cc(C(=O)NCCN(C)C)ccc1Nc1nc2ccc(-c3ccc(C(=O)NCc4ccc(F)cc4)cc3)cn2n1` [Example 12.55, N-[2-(dimethylamino)ethyl]-3-ethoxy-4-[(6-{4-[(4-fluoro-benzyl)carbamoyl]phenyl}-[1,2,4]triazolo[1,5-a]pyridin-2-yl)amino]benzamide], for which the pIC50 against Mps-1 kinase [1] and on Mps-1 kinase [2] was no less than 9.00 throughout.

On to `COc1cc(CO)ccc1Nc1nc2ccc(-c3ccc(C(=O)NCc4ccc(F)cc4)cc3)cn2n1` [Example 12.85, N-(4-fluorobenzyl)-4-(2-{[4-(hydroxymethyl)-2-methoxyphenyl]amino}-[1,2,4]triazolo[1,5-α]pyridin-6-yl)benzamide], for which the pIC50 is 8.66 at Mps-1 kinase [1] and no less than 9.00 at Mps-1 kinase [2].

On to `CCS(=O)(=O)c1ccc(Nc2nc3ccc(-c4ccc(NC(=O)Cc5ccc(F)cc5)cc4)cn3n2)c(OC(F)F)c1` [Example 01.36, N-[4-(2-{[2-(difluoromethoxy)-4-(ethylsulfonyl)phenyl]amino}[1,2,4]-triazolo[1,5-α]pyridin-6-yl)phenyl]-2-(4-fluorophenyl)acetamide], for which the pIC50 at Mps-1 kinase [1] and on Mps-1 kinase [2] was no less than 9.00 in each case.

`COc1cc(S(C)(=O)=O)ccc1Nc1nc2ccc(-c3ccc(NC(=O)Cc4ccccc4)cc3)cn2n1` [Example 12.42, N-[4-(2-{[2-methoxy-4-(methylsulfonyl)phenyl]-amino}[1,2,4]triazolo[1,5-a]pyridin-6-yl)phenyl]-2-phenylacetamide]: the results for the pIC50 against Mps-1 kinase [1] and at Mps-1 kinase [2] were 7.92 and no less than 9.00, respectively.

Turning to `COc1cc(C(=O)N(C)CCN(C)C)ccc1Nc1nc2ccc(-c3ccc(C(=O)NCc4ccc(F)cc4)cc3)cn2n1` [Example 12.49, N-[2-(dimethylamino)ethyl]-4-[(6-{4-[(4-fluorobenzyl)-carbamoyl]phenyl}[1,2,4]triazolo [1,5-a]pyridin-2-yl)-amino]-3-methoxy-N-methylbenzamide], the figures for the pIC50 on Mps-1 kinase [1] and against Mps-1 kinase [2] were 8.47 and no less than 9.00, respectively.

Turning to `COc1cc(C(=O)NCC(F)(F)F)ccc1Nc1nc2ccc(-c3ccc(C(=O)NCc4ccc(Cl)cc4)cc3)cn2n1` [Example 12.72, 4-[(6-{4-[(4-chlorobenzyl)-carbamoyl]phenyl}[1,2,4]triazolo [1,5-a]pyridin-2-yl)-amino]-3-methoxy-N-(2,2,2-trifluoroethyl)benzamide], the results for the pIC50 on Mps-1 kinase [1] and against Mps-1 kinase [2] were 7.80 and no less than 9.00, respectively.

`COc1cc(C(=O)NCCF)ccc1Nc1nc2ccc(-c3ccc(C(=O)NCc4ccc(F)cc4)cc3)cn2n1` [Example 12.45, 4-[(6-{4-[(4-fluorobenzyl)-carbamoyl]phenyl}[1,2,4]triazolo [1,5-a]pyridin-2-yl)-amino]-N-(2-fluoroethyl)-3-methoxybenzamide]: the pIC50 at Mps-1 kinase [1] was 8.85; at Mps-1 kinase [2], no less than 9.00.

With `COc1cc(C(=O)NCCCF)ccc1Nc1nc2ccc(-c3ccc(C(=O)NCc4ccc(F)cc4)cc3)cn2n1` [Example 12.50, 4-[(6-{4-[(4-fluorobenzyl)-carbamoyl]phenyl}[1,2,4]triazolo [1,5-a]pyridin-2-yl)-amino]-N-(3-fluoropropyl)-3-methoxybenzamide], the pIC50 is 8.51 against Mps-1 kinase [1] and no less than 9.00 against Mps-1 kinase [2].

Regarding `COc1cc(S(C)(=O)=O)ccc1Nc1nc2ccc(-c3ccc(NC(=O)Cc4ccc(Cl)cc4)cc3)cn2n1` [Example 12.41, 2-(4-chlorophenyl)-N-[4-(2-{[2-methoxy-4-(methyl-sulfonyl)phenyl]amino}-[1,2,4]triazolo[1,5-a]pyridin-6-yl)phenyl]acetamide], the pIC50 at Mps-1 kinase [1] was 8.14; against Mps-1 kinase [2], no less than 9.00.

With `Cc1cc(C(=O)NCC(F)(F)F)ncc1Nc1nc2ccc(-c3ccc(NC(=O)Cc4ccc(F)cc4)cc3)cn2n1` [Example 12.38, 5-{[6-(4-{[(4-fluorophenyl)-acetyl]amino}phenyl)[1,2,4]triazolo[1,5-a]pyridin-2-yl]amino}-4-methyl-N-(2,2,2-trifluoroethyl)-pyridine-2-carboxamide], the pIC50 on Mps-1 kinase [2] was no less than 9.00.

By pIC50 is commonly meant the IC50 on a negative log10 scale, so that one unit is a factor of ten.

These data come from patent US20140120087A1, “TRIAZOLOPYRIDINES” (BAYER INTELLECTUAL PROPERTY GMBH, priority 2011, published 2014).
